Assay results from patent US20230085307A1, “PYRIDAZINONE COMPOUND AND HERBICIDE” (NISSAN CHEMICAL CORPORATION, priority 2019, published 2023).

Experiments:
Italian ryegrass [1] = experiment: Test Example 4: herbicidal effect by soil treatment (Table 19, symbol K); assay type: in vivo, Italian ryegrass (Lolium multiflorum); conditions: amount of applied herbicide 320 g/ha
Procedure, shortened: (§1)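 Seeds were sown in sterilized diluvial soil and covered with about 1.5 cm of soil. An emulsion formulation diluted with water to a predetermined herbicide amount was sprayed evenly onto the soil surface. Plants grew in a greenhouse at 25° C. to 30° C., and the effect was scored three weeks after application using criteria from an earlier test.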

southern crabgrass [2] = experiment: Test Example 4: herbicidal effect by soil treatment (Table 19, symbol F); assay type: in vivo, southern crabgrass (Digitaria ciliaris); conditions: amount of applied herbicide 320 g/ha
Procedure, shortened: as §1

velvetleaf [3] = experiment: Test Example 4: herbicidal effect by soil treatment (Table 19, symbol M); assay type: in vivo, velvetleaf (Abutilon theophrasti); conditions: amount of applied herbicide 320 g/ha
Procedure, shortened: as §1

barnyard grass [4] = experiment: Test Example 4: herbicidal effect by soil treatment (Table 19, symbol H); assay type: in vivo, barnyard grass (Echinochloa crus-galli); conditions: amount of applied herbicide 320 g/ha
Procedure, shortened: as §1

blackgrass [5] = experiment: Test Example 4: herbicidal effect by soil treatment (Table 19, symbol J); assay type: in vivo, blackgrass (Alopecurus myosuroides); conditions: amount of applied herbicide 320 g/ha
Procedure, shortened: as §1

green foxtail [6] = experiment: Test Example 5: herbicidal effect by foliage application, plastic box (Table 20, symbol G); assay type: in vivo, green foxtail (Setaria viridis); conditions: foliage application, 320 g/ha, three weeks after application
Procedure, shortened: (§2)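 Plants sown in sterilized diluvial soil and grown 14 days in a greenhouse at 25° C to 30° C, then sprayed on the foliage with the compound's emulsion diluted in water to a predetermined herbicide amount. Injury to weeds and crops scored three weeks after application on a visual rating scale.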

Chinese sprangletop = experiment: Test Example 3: herbicidal effect by foliage application, Wagner pot (Table 18, symbol D); assay type: in vivo, chinese sprangletop (Leptochloa chinensis); conditions: 320 g/ha
Procedure, shortened: (§3)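 Plants were sown in alluvial soil held under 0.1–0.5 cm standing water and grown 14 days in a greenhouse at 25–30 °C. An emulsifiable formulation, water-diluted to the set dose, was then sprayed onto the foliage, and effects were scored three weeks later using previously defined criteria.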

rice flat sedge = experiment: Test Example 3: herbicidal effect by foliage application, Wagner pot (Table 18, symbol E); assay type: in vivo, rice flat sedge (Cyperus iria); conditions: 320 g/ha
Procedure, shortened: as §3

persian speedwell [7] = experiment: Test Example 4: herbicidal effect by soil treatment (Table 19, symbol R); assay type: in vivo, Persian speedwell (Veronica persica); conditions: amount of applied herbicide 320 g/ha
Procedure, shortened: as §1

southern crabgrass [8] = experiment: Test Example 5: herbicidal effect by foliage application, plastic box (Table 20, symbol F); assay type: in vivo, southern crabgrass (Digitaria ciliaris); conditions: foliage application, 320 g/ha, three weeks after application
Procedure, shortened: as §2

barnyard grass [9] = experiment: Test Example 3: herbicidal effect by foliage application, Wagner pot (Table 18, symbol H); assay type: in vivo, barnyard grass (Echinochloa crus-galli); conditions: 320 g/ha
Procedure, shortened: as §3

windgrass [10] = experiment: Test Example 4: herbicidal effect by soil treatment (Table 19, symbol L); assay type: in vivo, windgrass (Apera spica-venti); conditions: amount of applied herbicide 320 g/ha
Procedure, shortened: as §1

redroot pigweed [11] = experiment: Test Example 4: herbicidal effect by soil treatment (Table 19, symbol N); assay type: in vivo, redroot pigweed (Amaranthus retroflexus); conditions: amount of applied herbicide 320 g/ha
Procedure, shortened: as §1

velvetleaf [12] = experiment: Test Example 5: herbicidal effect by foliage application, plastic box (Table 20, symbol M); assay type: in vivo, velvetleaf (Abutilon theophrasti); conditions: foliage application, 320 g/ha, three weeks after application
Procedure, shortened: as §2

lambsquarters [13] = experiment: Test Example 5: herbicidal effect by foliage application, plastic box (Table 20, symbol O); assay type: in vivo, lambsquarters (Chenopodium album); conditions: foliage application, 320 g/ha, three weeks after application
Procedure, shortened: as §2

lambsquarters [14] = experiment: Test Example 4: herbicidal effect by soil treatment (Table 19, symbol O); assay type: in vivo, lambsquarters (Chenopodium album); conditions: amount of applied herbicide 320 g/ha
Procedure, shortened: as §1

barnyard grass [15] = experiment: Test Example 5: herbicidal effect by foliage application, plastic box (Table 20, symbol H); assay type: in vivo, barnyard grass (Echinochloa crus-galli); conditions: foliage application, 320 g/ha, three weeks after application
Procedure, shortened: as §2

persian speedwell [16] = experiment: Test Example 5: herbicidal effect by foliage application, plastic box (Table 20, symbol R); assay type: in vivo, Persian speedwell (Veronica persica); conditions: foliage application, 320 g/ha, three weeks after application
Procedure, shortened: as §2

chickweed [17] = experiment: Test Example 4: herbicidal effect by soil treatment (Table 19, symbol P); assay type: in vivo, common chickweed (Stellaria media); conditions: amount of applied herbicide 320 g/ha
Procedure, shortened: as §1

wild oat [18] = experiment: Test Example 4: herbicidal effect by soil treatment (Table 19, symbol I); assay type: in vivo, wild oat (Avena fatua); conditions: amount of applied herbicide 320 g/ha
Procedure, shortened: as §1

false cleavers [19] = experiment: Test Example 4: herbicidal effect by soil treatment (Table 19, symbol Q); assay type: in vivo, false cleavers (Galium spurium); conditions: amount of applied herbicide 320 g/ha
Procedure, shortened: as §1

green foxtail [20] = experiment: Test Example 4: herbicidal effect by soil treatment (Table 19, symbol G); assay type: in vivo, green foxtail (Setaria viridis); conditions: amount of applied herbicide 320 g/ha
Procedure, shortened: as §1

chickweed [21] = experiment: Test Example 5: herbicidal effect by foliage application, plastic box (Table 20, symbol P); assay type: in vivo, common chickweed (Stellaria media); conditions: foliage application, 320 g/ha, three weeks after application
Procedure, shortened: as §2

wild oat [22] = experiment: Test Example 5: herbicidal effect by foliage application, plastic box (Table 20, symbol I); assay type: in vivo, wild oat (Avena fatua); conditions: foliage application, 320 g/ha, three weeks after application
Procedure, shortened: as §2

false cleavers [23] = experiment: Test Example 5: herbicidal effect by foliage application, plastic box (Table 20, symbol Q); assay type: in vivo, false cleavers (Galium spurium); conditions: foliage application, 320 g/ha, three weeks after application
Procedure, shortened: as §2

windgrass [24] = experiment: Test Example 5: herbicidal effect by foliage application, plastic box (Table 20, symbol L); assay type: in vivo, windgrass (Apera spica-venti); conditions: foliage application, 320 g/ha, three weeks after application
Procedure, shortened: as §2

blackgrass [25] = experiment: Test Example 5: herbicidal effect by foliage application, plastic box (Table 20, symbol J); assay type: in vivo, blackgrass (Alopecurus myosuroides); conditions: foliage application, 320 g/ha, three weeks after application
Procedure, shortened: as §2

Italian ryegrass [26] = experiment: Test Example 5: herbicidal effect by foliage application, plastic box (Table 20, symbol K); assay type: in vivo, Italian ryegrass (Lolium multiflorum); conditions: foliage application, 320 g/ha, three weeks after application
Procedure, shortened: as §2

late watergrass = experiment: Test Example 1: herbicidal activity, application before weed generation under submerged conditions (Table 16, symbol A); assay type: in vivo, late watergrass (Echinochloa oryzicola); conditions: 320 g/ha applied herbicide
Procedure, shortened: (§4)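 Alluvial soil was flooded to 4 cm depth, weed seeds were sown mixed and 2.5-leaf rice seedlings were transplanted. On sowing day, the compound's emulsion, diluted in water to a set dose, was applied to the water surface. Plants grew at 25–30 °C and were scored 0–5 after three weeks.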

Japanese bulrush = experiment: Test Example 1: herbicidal activity, application before weed generation under submerged conditions (Table 16, symbol B); assay type: in vivo, Japanese bulrush (Schoenoplectus juncoides); conditions: 320 g/ha applied herbicide
Procedure, shortened: as §4

oval-leafed pondweed = experiment: Test Example 1: herbicidal activity, application before weed generation under submerged conditions (Table 16, symbol C); assay type: in vivo, oval-leafed pondweed (Monochoria vaginalis); conditions: 320 g/ha applied herbicide
Procedure, shortened: as §4

redroot pigweed [27] = experiment: Test Example 5: herbicidal effect by foliage application, plastic box (Table 20, symbol N); assay type: in vivo, redroot pigweed (Amaranthus retroflexus); conditions: foliage application, 320 g/ha, three weeks after application
Procedure, shortened: as §2

| Structure (SMILES) | herbicidal effect rating, K: Italian ryegrass (Italian ryegrass [1]) | herbicidal effect rating, F: southern crabgrass (southern crabgrass [2]) | herbicidal effect rating, M: velvetleaf (velvetleaf [3]) | herbicidal effect rating, H: barnyard grass (barnyard grass [4]) | herbicidal effect rating, J: blackgrass (blackgrass [5]) | herbicidal effect grade, G: green foxtail (green foxtail [6]) | herbicidal effect on D (Chinese sprangletop), rating 0-5 (Chinese sprangletop) | herbicidal effect on E (rice flat sedge), rating 0-5 (rice flat sedge) | herbicidal effect rating, R: persian speedwell (persian speedwell [7]) | herbicidal effect grade, F: southern crabgrass (southern crabgrass [8]) | herbicidal effect on H (barnyard grass), rating 0-5 (barnyard grass [9]) | herbicidal effect rating, L: windgrass (windgrass [10]) | herbicidal effect rating, N: redroot pigweed (redroot pigweed [11]) | herbicidal effect grade, M: velvetleaf (velvetleaf [12]) | herbicidal effect grade, O: lambsquarters (lambsquarters [13]) | herbicidal effect rating, O: lambsquarters (lambsquarters [14]) | herbicidal effect grade, H: barnyard grass (barnyard grass [15]) | herbicidal effect grade, R: persian speedwell (persian speedwell [16]) | herbicidal effect rating, P: chickweed (chickweed [17]) | herbicidal effect rating, I: wild oat (wild oat [18]) | further results |
| --- | --- | --- | --- | --- | --- | --- | --- | --- | --- | --- | --- | --- | --- | --- | --- | --- | --- | --- | --- | --- | --- |
| CCCCc1ccc(-c2sc3ccccc3c2-c2c(O)c(C)nn(C)c2=O)cc1 [1-005] | 0 (Herbicidal rate of 5% or less (almost no effect)) | 0 (Herbicidal rate of 5% or less (almost no effect)) | 0 (Herbicidal rate of 5% or less (almost no effect)) | 0 (Herbicidal rate of 5% or less (almost no effect)) | 0 (Herbicidal rate of 5% or less (almost no effect)) | 0 (Herbicidal rate of 5% or less (almost no effect)) | 0 (Herbicidal rate of 5% or less (almost no effect)) | 5 (Herbicidal rate of 90% or more (almost completely withered)) | 4 (Herbicidal rate of 70% or more and less than 90%) | 0 (Herbicidal rate of 5% or less (almost no effect)) | 4 (Herbicidal rate of 70% or more and less than 90%) | 0 (Herbicidal rate of 5% or less (almost no effect)) | 0 (Herbicidal rate of 5% or less (almost no effect)) | 3 (Herbicidal rate of 40% or more and less than 70%) | 5 (Herbicidal rate of 90% or more (almost completely withered)) | 0 (Herbicidal rate of 5% or less (almost no effect)) | 0 (Herbicidal rate of 5% or less (almost no effect)) | 5 (Herbicidal rate of 90% or more (almost completely withered)) | 0 (Herbicidal rate of 5% or less (almost no effect)) | 0 (Herbicidal rate of 5% or less (almost no effect)) | herbicidal effect rating, Q: false cleavers (false cleavers [19]): 0 (Herbicidal rate of 5% or less (almost no effect)); herbicidal effect rating, G: green foxtail (green foxtail [20]): 0 (Herbicidal rate of 5% or less (almost no effect)); herbicidal effect grade, P: chickweed (chickweed [21]): 5 (Herbicidal rate of 90% or more (almost completely withered)); herbicidal effect grade, I: wild oat (wild oat [22]): 0 (Herbicidal rate of 5% or less (almost no effect)); herbicidal effect grade, Q: false cleavers (false cleavers [23]): 0 (Herbicidal rate of 5% or less (almost no effect)); herbicidal effect grade, L: windgrass (windgrass [24]): 0 (Herbicidal rate of 5% or less (almost no effect)); herbicidal effect grade, J: blackgrass (blackgrass [25]): 0 (Herbicidal rate of 5% or less (almost no effect)); herbicidal effect grade, K: Italian ryegrass (Italian ryegrass [26]): 0 (Herbicidal rate of 5% or less (almost no effect)); Herbicidal effect on A: late watergrass (grade 0-5) (late watergrass): 2 (Herbicidal rate of 20% or more and less than 40%); Herbicidal effect on B: Japanese bulrush (grade 0-5) (Japanese bulrush): 0 (Herbicidal rate of 5% or less (almost no effect)); Herbicidal effect on C: oval-leafed pondweed (grade 0-5) (oval-leafed pondweed): 0 (Herbicidal rate of 5% or less (almost no effect)); herbicidal effect grade, N: redroot pigweed (redroot pigweed [27]): 4 (Herbicidal rate of 70% or more and less than 90%) |
| CCCCc1ccc(-c2sc3ccccc3c2-c2c(OC(=O)CCC)c(C)nn(C)c2=O)cc1 [1-006] | 0 (Herbicidal rate of 5% or less (almost no effect)) | 0 (Herbicidal rate of 5% or less (almost no effect)) | 0 (Herbicidal rate of 5% or less (almost no effect)) | 0 (Herbicidal rate of 5% or less (almost no effect)) | 0 (Herbicidal rate of 5% or less (almost no effect)) | 0 (Herbicidal rate of 5% or less (almost no effect)) | 0 (Herbicidal rate of 5% or less (almost no effect)) | 5 (Herbicidal rate of 90% or more (almost completely withered)) | 3 (Herbicidal rate of 40% or more and less than 70%) | 0 (Herbicidal rate of 5% or less (almost no effect)) | 3 (Herbicidal rate of 40% or more and less than 70%) | 0 (Herbicidal rate of 5% or less (almost no effect)) | 0 (Herbicidal rate of 5% or less (almost no effect)) | 4 (Herbicidal rate of 70% or more and less than 90%) | 4 (Herbicidal rate of 70% or more and less than 90%) | 4 (Herbicidal rate of 70% or more and less than 90%) | 0 (Herbicidal rate of 5% or less (almost no effect)) | 5 (Herbicidal rate of 90% or more (almost completely withered)) | 0 (Herbicidal rate of 5% or less (almost no effect)) | 0 (Herbicidal rate of 5% or less (almost no effect)) | herbicidal effect rating, Q: false cleavers (false cleavers [19]): 0 (Herbicidal rate of 5% or less (almost no effect)); herbicidal effect rating, G: green foxtail (green foxtail [20]): 0 (Herbicidal rate of 5% or less (almost no effect)); herbicidal effect grade, P: chickweed (chickweed [21]): 5 (Herbicidal rate of 90% or more (almost completely withered)); herbicidal effect grade, I: wild oat (wild oat [22]): 0 (Herbicidal rate of 5% or less (almost no effect)); herbicidal effect grade, Q: false cleavers (false cleavers [23]): 0 (Herbicidal rate of 5% or less (almost no effect)); herbicidal effect grade, L: windgrass (windgrass [24]): 0 (Herbicidal rate of 5% or less (almost no effect)); herbicidal effect grade, J: blackgrass (blackgrass [25]): 0 (Herbicidal rate of 5% or less (almost no effect)); herbicidal effect grade, K: Italian ryegrass (Italian ryegrass [26]): 0 (Herbicidal rate of 5% or less (almost no effect)); Herbicidal effect on A: late watergrass (grade 0-5) (late watergrass): 3 (Herbicidal rate of 40% or more and less than 70%); Herbicidal effect on B: Japanese bulrush (grade 0-5) (Japanese bulrush): 1 (Herbicidal rate of 5% or more and less than 20%); Herbicidal effect on C: oval-leafed pondweed (grade 0-5) (oval-leafed pondweed): 0 (Herbicidal rate of 5% or less (almost no effect)); herbicidal effect grade, N: redroot pigweed (redroot pigweed [27]): 5 (Herbicidal rate of 90% or more (almost completely withered)) |
